# Data taken from patent US11135219B2, “Methods of treating or preventing Zika virus infection” (priority 2017, dated 2021).
# How the values were obtained:
# in vivo = format: in vivo, Balb/C mice; conditions: Balb/C, mouse, in vivo, ip, 25 mg/kg
# Description: (§1) ZIKV viral RNA was detected using RT-qPCR on a C100 Thermal Cycler and the CFX96 Real-Time system (Bio-Rad). Viral RNA (vRNA) was extracted from culture supernatant using a QlAamp Viral RNA Mini kit (Qiagen) and TaqMan Fast Virus 1-Step Master Mix (Life technologies). ZIKV primers and probe (ZIKF: CCGCTGCCCAACACAAG (SEQ ID NO:1); ZIK-R:[…] (SEQ ID NO:2); PCR Probe: ZIK-P: […] (SEQ ID NO:3)) were used for quantitative RT-PCR (RT-qPCR) with the following parameters: 50° C. 30 min, 95° C. 5 min, (95° C. 30 S, 58° C. 1 min)×40 cycles. RNA standard concentrations were determined based on the back calculation with OD values and molecular weights and were generated through serial dilution with R^2>0.95.
# (§2) Balb/C mice were obtained from the Jackson Laboratory (Bar Harbor, Me., USA). After acclimatization for four days, groups of animals (n=6 per group) were injected intraperitoneally with 25 mg/kg body weight dose of TPB diluted in saline or saline alone (no drug control). Following three injections at 12 h intervals, 500 PFU of PRVABC59 virus diluted in PBS was inoculated into each mouse by the subcutaneous (SC) route. Blood was collected by retro-orbital bleeding under anesthesia at days 2, 3, 4, 5, and 6 post-infection. Viral genome copies in the plasma were determined by RT-qPCR.
# PRVABC59 virus [1] = experiment: in vivo; format: in vivo, Balb/C mice
# Description: as §1, §2
# [2] = Pharmacokinetic study of TPB in mice (plasma LC-MS/MS); format: in vivo, Balb/C mice; conditions: 10-12 h post-injection, intraperitoneal, 5 mg/kg or 25 mg/kg
# Description: For PK studies, groups of Balb/C mice (n=3) were injected intraperitoneally with doses of 5 mg/kg or 25 mg/kg of body weight of TPB in 5% dextrose, plasma was collected from the animals at various times post-injection and stored at −80° C. until analysis by LC-MS/MS for TPB concentrations. Plasma drug levels were subjected to noncompartmental analysis (WinNonlin ver. 6.4 Certera Inc., Princeton, N.J.). The predicted steady-state levels>500 ng/ml were estimated using a twelve h dosing of 25 mg/kg dose of the compound in mice.
# TPB was dissolved in DMSO at 1 mg/ml. Working standard solutions were then prepared in 50% methanol in water from the stock solution. Standards (an eight-point calibration curve) and quality controls (at three levels) were prepared by spiking the working standard solutions to blank mouse plasma. One hundred μl aliquot of plasma was mixed with 25 μl of internal standard spiking solution (rilpivirine 1000 ng/ml in 50% acetonitrile in water), 1.5 ml ethyl acetate was added and vortexed vigorously for 15 min. […]
# An Agilent 1200 HPLC system (Agilent Technologies, CA, USA) coupled with AB Sciex API 3200 Q Trap with an electrospray ionization source (Applied Biosystems, Foster City, Calif., USA) was used. The mass transitions m/z 541.2→330.2 and 541.2→212.2 for analyte and m/z 367.2→195.2 for internal standard were monitored. […]
# Zika virus strain MR766 = experiment: Inhibition of MR766 virus growth by TPB; format: cell-based; conditions: μM range TPB concentrations tested
# Description: (§3) Vero cells were seeded in a 96-well plate with the density of 6000 cells per well. In the initial screening study, the compound (1 μM)-virus (0.1 PFU/cell) mixture in virus growth medium (VGM) [DMEM containing 2% FBS, PS, 20 mM hydroxyethyl piperazine ethane sulfonic acid (HEPES), 1 mM sodium pyruvate, and non-essential amino acids] was added to the cells and incubated for 72 h. In a separate experiment conducted using 12-well plates, the cells were first infected with the virus at 0.1 PFU/cell and following adsorption, the cells were washed twice in PBS and incubated in VGM containing 1 μM concentrations of the drugs. The cell culture media were collected at 72-96 h post-infection and assayed for infectious virus by plaque assay and viral genome copies by quantitative RT-PCR (RT-qPCR). In all subsequent studies, cells in 12-well plates were infected with ZIKV at MOI of 0.1 PFU/cell and following virus adsorption for 1 h at 37° C., VGM containing various concentrations TPB was added to the cells and incubated as above. Clarified supernatants from the infected cells were then used to determine infectious virus or genome copies as above.
# [3] = system: Zika virus strain PRVABC59; experiment: Inhibition assay: PRVABC59 ZIKV growth in Vero cells (plaque assay, RT-qPCR); format: cell-based
# Description: as §3, §1
# PRVABC59 virus [4] = experiment: PRVABC59 virus growth in HTR-8 cells in the presence of TPB; format: cell-based, Zika virus; conditions: human trophoblast cell line HTR-8
# [5] = ATP-based cell viability assay (CellTiter-Glo); conditions: African green monkey (Cercopithecus aethiops), Vero cells, four days, read-out: CC50 (cellular cytotoxicity 50)
# Description: A modified ATP based cytopathic effect (CPE) assay was used for this study based on the CPE method for anti-DENV drug development described elsewhere (see, e.g., Che et al., 2009 Int. J. Clin. Exp. Med. 2:363-373). Vero cells (approximately 30,000 per well) were seeded in a black 96-well plate for 24 hours before the experiment. Cell monolayers were treated with various concentrations of the drugs for 4 days at 37° C. The ATP concentration was measured following manufacturer's recommendations using CellTiter-Glo kit from Promega (Madison, Wis.). Luminescence was recorded using a Veritas Microplate Luminometer at 420 nm. The 50% cytotoxic concentration (CC50) was calculated by a non-linear regression analysis of the dose-response curves.
# Viral E protein = experiment: Western blot analysis of E protein expression in virus-infected cells; format: cell-based, Zika virus
# Description: FIGS. 3A-3C show validation of the antiviral effect of TPB in the μM range. (FIG. 3A) Cells infected with PRVABC59 virus were incubated in the presence of various concentrations of TPB for 96 hours. Culture supernatants were titrated for viral genome copies (FIG. 3A) and infectious virus (FIG. 3B). Data are from three independent experiments with error bars showing±SEM. Statistical analysis was performed using unpaired two-tailed Student's t-test to determine significance of difference. […]. (FIG. 3C) Western blot analysis of E protein expression in virus-infected cells in the presence of various concentrations of TPB. Relative mobility of molecular mass markers are shown on the left.
# PRVABC59 virus [6] = experiment: PRVABC59 virus growth in NTERRA cells in the presence of TPB; format: cell-based, Zika virus; conditions: human testicular cell line NTERRA
# ZIKV = conditions: cited from earlier work
# DENV = conditions: cited from earlier work
smiles,measurement,setting,value
"O=C(NC(=S)Nc1ccc(N2CCN(C(=O)c3cccs3)CC2)cc1)c1sc2ccccc2c1Cl [Compound 1, 3-chloro-N-[({4-[4-(2-thienylcarbonyl)-1-piperazinyl]phenyl}amino)carbonothioyl]-1-benzothiophene-2-carboxamide]",concentration at 2 days post-infection,in vivo,~270 ng/mL
same,"Viral RNA level in plasma, lower than vehicle group","PRVABC59 virus [1]; day 4 post-infection, 25 mg/kg intraperitoneal, 500 PFU ZIKV",~40 fold
same,ZIKV viremia,PRVABC59 virus [1]; immunocompetent mice,reduced ZIKV viremia significantly
same,TPB plasma level,[2],approximately 100 ng/ml
same,MR766 virus growth inhibition,Zika virus strain MR766,sensitive to inhibition
same,"Genome copy numbers in supernatants, reduction","[3]; 0.5 μM TPB, 96 hours",over 100 fold
same,"Infectious virus in supernatants, reduction","[3]; 0.5 μM TPB, 96 hours",over 100 fold
same,Virus growth reduction,"[3]; 1 μM TPB, 96 hours",over 1000 fold
same,ZIKV growth inhibition (genome copies in culture supernatants) vs vehicle-only treated cells,"[3]; 1 μM compound, Vero cells, 72 hours",> 99%
same,Infectious virus yield inhibition,"[3]; 1 μM compound, Vero cells, 96 hours",at least 1000 fold
same,"ZIKV yield inhibition, side-by-side comparison","[3]; 1 μM, Vero cells, PRVABC59, 96 hours post-infection",over 1000 fold
same,"Selectivity index 50 (SI50, CC50/IC50)",[3]; Vero cells,206
same,IC50,"[3]; Zika virus, Vero, 96 h, Vero cells, PRVABC59, 96 hours post-infection, read-out: IC50 (infectious virus yield, plaque assay)",94 nM
same,PRVABC59 virus growth inhibition in HTR-8,PRVABC59 virus [4],inhibited the virus growth
same,CC50 at 4 days,[5],19.4 µM
same,Viral E protein synthesis in infected cells,Viral E protein; 0.5 μM TPB,significantly inhibited
same,Viral E protein synthesis in infected cells,Viral E protein; higher concentrations than 0.5 μM TPB,undetectable
same,PRVABC59 virus growth inhibition in NTERRA,PRVABC59 virus [6],inhibited the virus growth
"CC[C@H](C)[C@H]1O[C@]2(CC[C@@H]1C)C[C@@H]1C[C@@H](C/C=C(\C)[C@@H](O[C@H]3C[C@H](OC)[C@@H](O[C@H]4C[C@H](OC)[C@@H](O)[C@H](C)O4)[C@H](C)O3)[C@@H](C)/C=C/C=C3\CO[C@@H]4[C@H](O)C(C)=C[C@@H](C(=O)O1)[C@]34O)O2 [IVM, Ivermectin]",Inhibition of ZIKV infection,ZIKV; 10 μM,strongly
"COc1c(C)c2c(c(O)c1C/C=C(\C)CCC(=O)O)C(=O)OC2 [MPA, Mycophenolic acid]",DENV RNA replication,DENV,inhibit DENV RNA replication
same,Inhibition of infection of cells in vitro by ZIKV,ZIKV; 1 μM,over 99%
